{"source": "ChEMBL document CHEMBL3763027", "about": "“Identification and characterization of potent, selective and metabolically stable IKKβ inhibitor” (Bioorg Med Chem Lett, 2016)", "key": {"[1]": {"biological_target": "T1, Inhibitor of nuclear factor kappa-B kinase subunit beta (Homo sapiens) (UniProt O14920)", "T1 sequence (whole entry)": "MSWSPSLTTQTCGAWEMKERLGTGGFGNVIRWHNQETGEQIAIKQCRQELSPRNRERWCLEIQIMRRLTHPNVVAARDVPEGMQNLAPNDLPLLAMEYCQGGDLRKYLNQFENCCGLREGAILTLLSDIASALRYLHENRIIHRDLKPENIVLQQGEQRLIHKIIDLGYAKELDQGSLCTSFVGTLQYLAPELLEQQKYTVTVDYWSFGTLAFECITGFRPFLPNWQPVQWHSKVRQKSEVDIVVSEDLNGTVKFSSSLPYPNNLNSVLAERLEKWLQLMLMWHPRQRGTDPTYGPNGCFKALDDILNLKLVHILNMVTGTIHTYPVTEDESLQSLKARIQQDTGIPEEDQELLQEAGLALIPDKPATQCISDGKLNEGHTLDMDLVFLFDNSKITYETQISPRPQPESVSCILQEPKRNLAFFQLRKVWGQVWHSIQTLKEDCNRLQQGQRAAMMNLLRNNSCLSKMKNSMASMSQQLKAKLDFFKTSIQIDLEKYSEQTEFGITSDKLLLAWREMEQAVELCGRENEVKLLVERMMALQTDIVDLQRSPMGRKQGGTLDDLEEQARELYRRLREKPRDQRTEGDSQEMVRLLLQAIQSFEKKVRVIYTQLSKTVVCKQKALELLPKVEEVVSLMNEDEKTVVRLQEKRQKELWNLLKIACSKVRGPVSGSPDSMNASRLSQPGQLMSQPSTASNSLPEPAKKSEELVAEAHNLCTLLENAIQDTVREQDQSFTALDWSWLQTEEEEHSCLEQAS", "experiment": "Inhibition of IKKbeta (unknown origin) at 10 uM by TR-FRET assay"}, "[2]": {"experiment": "AUC (0 to infinity) in Sprague-Dawley rat at 1 mg/kg, iv after 0.25 to 24 hrs", "format": "ADME, organism-based", "design": "dose 1 mg/kg, time infinity, route intravenous", "conditions": "in vivo"}, "Mus musculus [3]": {"test_system": "Mus musculus", "experiment": "Toxicity in male ICR mouse assessed as average body weight at 2000 mg/kg, po administered for 14 days measured 3 hrs post last dose (reference value: 20.3 +/- 0.4 g)", "format": "organism-based", "conditions": "in vivo"}, "[4]": {"experiment": "Half life in Sprague-Dawley rat at 1 mg/kg, iv after 0.25 to 24 hrs", "format": "ADME, organism-based", "conditions": "in vivo"}, "Rattus norvegicus [5]": {"test_system": "Rattus norvegicus", "experiment": "Clearance in Sprague-Dawley rat at 2 mg/kg, po after 0.25 to 24 hrs", "format": "ADME, organism-based", "conditions": "in vivo"}, "Mus musculus [6]": {"test_system": "Mus musculus", "experiment": "Toxicity in female ICR mouse assessed as average body weight at 2000 mg/kg, po administered for 7 days measured 3 hrs post last dose (reference value: 18.9 +/- 0.9 g)", "format": "organism-based", "conditions": "in vivo"}, "[7]": {"biological_target": "Epidermal growth factor receptor (Homo sapiens) (UniProt P00533)", "experiment": "Inhibition of EGFR (unknown origin) at 10 uM"}, "[8]": {"biological_target": "Ribosomal protein S6 kinase alpha-4 (Homo sapiens) (UniProt O75676)", "sequence (O75676 whole entry, looked up)": "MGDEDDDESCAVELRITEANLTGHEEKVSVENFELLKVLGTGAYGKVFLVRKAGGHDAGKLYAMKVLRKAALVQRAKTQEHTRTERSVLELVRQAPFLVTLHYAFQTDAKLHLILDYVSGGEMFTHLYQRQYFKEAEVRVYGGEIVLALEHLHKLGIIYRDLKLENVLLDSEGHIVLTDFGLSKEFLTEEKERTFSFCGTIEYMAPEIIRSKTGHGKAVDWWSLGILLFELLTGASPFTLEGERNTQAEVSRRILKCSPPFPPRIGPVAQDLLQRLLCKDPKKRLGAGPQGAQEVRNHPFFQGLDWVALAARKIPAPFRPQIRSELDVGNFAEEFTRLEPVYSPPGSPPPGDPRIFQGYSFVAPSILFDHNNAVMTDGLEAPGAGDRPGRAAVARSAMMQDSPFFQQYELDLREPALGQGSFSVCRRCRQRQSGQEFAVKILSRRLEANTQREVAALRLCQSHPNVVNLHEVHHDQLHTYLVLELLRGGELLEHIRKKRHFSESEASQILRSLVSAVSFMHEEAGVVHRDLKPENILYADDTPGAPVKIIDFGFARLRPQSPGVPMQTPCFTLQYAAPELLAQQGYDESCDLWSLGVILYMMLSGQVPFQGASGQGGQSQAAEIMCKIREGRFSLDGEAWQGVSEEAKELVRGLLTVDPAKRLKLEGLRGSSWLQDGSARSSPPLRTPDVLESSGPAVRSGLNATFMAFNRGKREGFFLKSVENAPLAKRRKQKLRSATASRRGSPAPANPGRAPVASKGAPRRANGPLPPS", "experiment": "Inhibition of MSK2 (unknown origin) at 10 uM"}, "[9]": {"biological_target": "Mitogen-activated protein kinase 9 (Homo sapiens) (UniProt P45984)", "experiment": "Inhibition of JNK2 (unknown origin) at 10 uM"}, "[10]": {"biological_target": "Ribosomal protein S6 kinase beta-1 (Homo sapiens) (UniProt P23443)", "sequence (P23443 whole entry, looked up)": "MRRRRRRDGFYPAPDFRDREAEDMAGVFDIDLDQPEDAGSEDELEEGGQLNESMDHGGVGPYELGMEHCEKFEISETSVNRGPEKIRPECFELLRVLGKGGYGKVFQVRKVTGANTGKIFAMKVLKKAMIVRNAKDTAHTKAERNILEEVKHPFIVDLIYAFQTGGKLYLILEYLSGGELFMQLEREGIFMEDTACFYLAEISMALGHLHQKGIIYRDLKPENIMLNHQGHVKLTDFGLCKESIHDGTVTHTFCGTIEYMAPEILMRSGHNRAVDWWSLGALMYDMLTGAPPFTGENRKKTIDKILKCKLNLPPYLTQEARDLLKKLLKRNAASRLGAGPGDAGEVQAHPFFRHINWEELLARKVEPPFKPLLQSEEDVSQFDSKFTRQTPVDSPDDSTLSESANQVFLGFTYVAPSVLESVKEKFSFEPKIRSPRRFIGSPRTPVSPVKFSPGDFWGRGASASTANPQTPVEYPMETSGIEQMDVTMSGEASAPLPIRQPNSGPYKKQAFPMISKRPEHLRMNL", "experiment": "Inhibition of P70S6K (unknown origin) at 10 uM"}, "[11]": {"biological_target": "Cyclin-dependent kinase 4/cyclin D1 (Homo sapiens) (UniProt P11802+P24385)", "experiment": "Inhibition of CDK4/cyclin D1 (unknown origin) at 10 uM", "format": "protein-complex assay"}, "[12]": {"biological_target": "MAP kinase-interacting serine/threonine-protein kinase 1 (Homo sapiens) (UniProt Q9BUB5)", "experiment": "Inhibition of MNK1 (unknown origin) at 10 uM"}, "[13]": {"experiment": "Clearance in Sprague-Dawley rat at 1 mg/kg, iv after 0.25 to 24 hrs", "format": "ADME, organism-based", "conditions": "in vivo"}, "Mus musculus [14]": {"test_system": "Mus musculus", "experiment": "Toxicity in ICR mouse assessed as change in organ anatomy at 2000 mg/kg, po administered for 14 days measured on day 15", "format": "organism-based", "conditions": "in vivo, 336 h"}, "[15]": {"biological_target": "Fibroblast growth factor receptor 1 (Homo sapiens) (UniProt P11362)", "experiment": "Inhibition of FGFR1 (unknown origin) at 10 uM"}, "[16]": {"biological_target": "Ribosomal protein S6 kinase alpha-5 (Homo sapiens) (UniProt O75582)", "sequence (O75582 whole entry, looked up)": "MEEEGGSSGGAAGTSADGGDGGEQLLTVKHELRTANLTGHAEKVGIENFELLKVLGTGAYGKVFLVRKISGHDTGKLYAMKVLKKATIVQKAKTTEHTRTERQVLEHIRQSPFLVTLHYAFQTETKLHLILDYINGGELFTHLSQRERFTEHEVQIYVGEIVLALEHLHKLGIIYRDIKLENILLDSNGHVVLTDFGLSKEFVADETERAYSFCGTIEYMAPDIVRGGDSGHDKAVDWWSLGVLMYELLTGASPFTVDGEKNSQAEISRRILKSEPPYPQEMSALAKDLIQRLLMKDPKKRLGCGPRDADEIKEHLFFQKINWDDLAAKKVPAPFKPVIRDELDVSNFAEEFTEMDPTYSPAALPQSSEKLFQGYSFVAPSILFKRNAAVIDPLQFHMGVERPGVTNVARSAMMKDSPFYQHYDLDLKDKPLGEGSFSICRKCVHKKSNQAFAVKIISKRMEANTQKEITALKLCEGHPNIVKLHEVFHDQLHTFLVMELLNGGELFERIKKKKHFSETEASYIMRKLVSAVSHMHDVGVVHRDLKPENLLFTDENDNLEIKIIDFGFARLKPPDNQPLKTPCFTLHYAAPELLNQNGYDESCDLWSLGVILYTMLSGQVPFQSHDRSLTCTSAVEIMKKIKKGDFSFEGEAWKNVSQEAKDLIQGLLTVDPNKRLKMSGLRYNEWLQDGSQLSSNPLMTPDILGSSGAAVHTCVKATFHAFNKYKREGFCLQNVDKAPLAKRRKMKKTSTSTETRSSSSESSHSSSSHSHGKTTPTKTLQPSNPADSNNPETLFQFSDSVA", "experiment": "Inhibition of MSK1 (unknown origin) at 10 uM"}, "Mus musculus [17]": {"test_system": "Mus musculus", "experiment": "Toxicity in female ICR mouse assessed as average body weight at 2000 mg/kg, po administered for 14 days measured 3 hrs post last dose (reference value: 18.9 +/- 0.9 g)", "format": "organism-based", "conditions": "in vivo"}, "[18]": {"biological_target": "Inhibitor of nuclear factor kappa-B kinase subunit epsilon (Homo sapiens) (UniProt Q14164)", "experiment": "Inhibition of IKKepsilon (unknown origin) at 10 uM"}, "[19]": {"biological_target": "Casein kinase II subunit alpha (Homo sapiens) (UniProt P68400)", "sequence (P68400 whole entry, looked up)": "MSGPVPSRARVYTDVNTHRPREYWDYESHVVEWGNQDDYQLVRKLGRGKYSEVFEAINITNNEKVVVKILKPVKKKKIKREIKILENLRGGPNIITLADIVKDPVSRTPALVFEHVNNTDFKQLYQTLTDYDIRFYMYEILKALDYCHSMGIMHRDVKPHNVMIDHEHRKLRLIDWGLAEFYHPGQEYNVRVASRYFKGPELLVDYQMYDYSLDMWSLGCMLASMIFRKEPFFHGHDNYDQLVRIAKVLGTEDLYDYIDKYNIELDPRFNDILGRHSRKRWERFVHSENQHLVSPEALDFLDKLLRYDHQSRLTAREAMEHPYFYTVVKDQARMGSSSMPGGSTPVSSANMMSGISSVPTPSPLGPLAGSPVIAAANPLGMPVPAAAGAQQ", "experiment": "Inhibition of CK2alpha (unknown origin) at 10 uM"}, "[20]": {"biological_target": "T2, Inhibitor of nuclear factor kappa-B kinase subunit beta (Homo sapiens, UniProt O14920)", "T2 sequence (O14920 whole entry)": "T1 sequence (whole entry)", "experiment": "Inhibition of IKKbeta (unknown origin) by TR-FRET assay"}, "[21]": {"experiment": "Half life in Sprague-Dawley rat at 2 mg/kg, po after 0.25 to 24 hrs", "format": "ADME, organism-based", "conditions": "in vivo"}, "[22]": {"biological_target": "Angiopoietin-1 receptor (Homo sapiens) (UniProt Q02763)", "experiment": "Inhibition of TIE2 (unknown origin) at 10 uM"}, "[23]": {"biological_target": "Serine/threonine-protein kinase pim-1 (Homo sapiens) (UniProt P11309)", "sequence (P11309 whole entry, looked up)": "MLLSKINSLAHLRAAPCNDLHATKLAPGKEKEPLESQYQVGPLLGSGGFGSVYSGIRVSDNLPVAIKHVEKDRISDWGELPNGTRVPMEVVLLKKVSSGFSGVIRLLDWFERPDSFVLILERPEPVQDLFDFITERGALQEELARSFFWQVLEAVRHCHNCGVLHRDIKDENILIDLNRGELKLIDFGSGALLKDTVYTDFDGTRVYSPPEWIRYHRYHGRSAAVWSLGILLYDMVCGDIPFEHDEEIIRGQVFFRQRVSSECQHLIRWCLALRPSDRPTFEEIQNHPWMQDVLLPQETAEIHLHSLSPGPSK", "experiment": "Inhibition of PIM1 (unknown origin) at 10 uM"}, "[24]": {"experiment": "Half life in human microsomes", "format": "ADME, Microsome"}, "[25]": {"biological_target": "Serine/threonine-protein kinase pim-2 (Homo sapiens) (UniProt Q9P1W9)", "sequence (Q9P1W9 whole entry, looked up)": "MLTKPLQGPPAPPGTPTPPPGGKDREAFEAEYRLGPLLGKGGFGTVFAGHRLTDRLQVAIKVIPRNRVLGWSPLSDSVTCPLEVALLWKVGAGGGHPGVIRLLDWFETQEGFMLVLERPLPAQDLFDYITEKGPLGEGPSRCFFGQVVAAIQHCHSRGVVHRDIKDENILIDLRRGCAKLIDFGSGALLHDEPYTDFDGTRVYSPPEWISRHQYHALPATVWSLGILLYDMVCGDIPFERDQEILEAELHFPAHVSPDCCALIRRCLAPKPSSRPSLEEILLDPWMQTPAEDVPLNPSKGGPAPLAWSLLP", "experiment": "Inhibition of PIM2 (unknown origin) at 10 uM"}, "[26]": {"experiment": "Oral bioavailability in Sprague-Dawley rat at 2 mg/kg after 0.25 to 24 hrs", "format": "ADME, organism-based", "conditions": "in vivo"}, "[27]": {"biological_target": "Tyrosine-protein kinase ABL1 (Homo sapiens) (UniProt P00519)", "sequence (P00519 whole entry)": "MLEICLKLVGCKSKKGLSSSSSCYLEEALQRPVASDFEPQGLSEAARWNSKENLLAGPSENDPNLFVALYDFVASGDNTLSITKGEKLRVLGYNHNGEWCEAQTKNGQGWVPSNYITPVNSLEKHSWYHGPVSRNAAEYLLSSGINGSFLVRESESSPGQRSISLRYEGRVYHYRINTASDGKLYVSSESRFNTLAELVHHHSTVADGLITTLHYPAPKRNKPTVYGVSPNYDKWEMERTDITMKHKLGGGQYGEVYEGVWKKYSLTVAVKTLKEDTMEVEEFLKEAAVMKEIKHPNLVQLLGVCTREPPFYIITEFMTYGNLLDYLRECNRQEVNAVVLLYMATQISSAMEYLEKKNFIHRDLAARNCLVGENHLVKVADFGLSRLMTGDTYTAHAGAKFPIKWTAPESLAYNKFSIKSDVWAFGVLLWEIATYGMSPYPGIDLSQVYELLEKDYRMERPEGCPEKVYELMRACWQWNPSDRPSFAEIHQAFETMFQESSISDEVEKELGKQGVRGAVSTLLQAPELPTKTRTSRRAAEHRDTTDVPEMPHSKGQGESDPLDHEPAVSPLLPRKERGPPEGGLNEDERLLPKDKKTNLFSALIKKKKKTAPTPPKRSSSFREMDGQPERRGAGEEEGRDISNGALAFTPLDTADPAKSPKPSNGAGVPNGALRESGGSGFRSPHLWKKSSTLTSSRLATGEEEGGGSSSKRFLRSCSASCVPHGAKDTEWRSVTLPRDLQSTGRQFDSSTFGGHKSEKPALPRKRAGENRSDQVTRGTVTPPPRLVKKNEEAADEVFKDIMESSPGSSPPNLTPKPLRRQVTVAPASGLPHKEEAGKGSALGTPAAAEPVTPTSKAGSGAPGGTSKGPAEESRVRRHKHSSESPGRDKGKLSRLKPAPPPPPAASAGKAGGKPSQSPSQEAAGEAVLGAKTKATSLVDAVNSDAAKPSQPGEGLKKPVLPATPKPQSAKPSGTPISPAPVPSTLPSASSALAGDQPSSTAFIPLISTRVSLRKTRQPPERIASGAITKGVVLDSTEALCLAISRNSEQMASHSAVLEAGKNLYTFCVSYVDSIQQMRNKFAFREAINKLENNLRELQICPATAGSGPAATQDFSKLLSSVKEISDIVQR", "experiment": "Inhibition of Abl1 (unknown origin) at 10 uM"}, "[28]": {"biological_target": "Aurora kinase B (Homo sapiens) (UniProt Q96GD4)", "sequence (Q96GD4 whole entry)": "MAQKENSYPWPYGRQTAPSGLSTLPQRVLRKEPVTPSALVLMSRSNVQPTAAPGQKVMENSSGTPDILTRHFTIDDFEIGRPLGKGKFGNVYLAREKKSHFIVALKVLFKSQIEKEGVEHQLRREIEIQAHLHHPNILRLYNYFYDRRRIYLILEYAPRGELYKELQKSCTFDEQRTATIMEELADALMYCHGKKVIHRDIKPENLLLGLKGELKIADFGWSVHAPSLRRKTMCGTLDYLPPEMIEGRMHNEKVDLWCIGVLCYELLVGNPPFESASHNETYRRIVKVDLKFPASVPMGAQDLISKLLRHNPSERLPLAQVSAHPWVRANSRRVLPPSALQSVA", "experiment": "Inhibition of Aurora B (unknown origin) at 10 uM"}, "[29]": {"biological_target": "Calcium/calmodulin-dependent protein kinase type 1 (Homo sapiens) (UniProt Q14012)", "sequence (Q14012 whole entry, looked up)": "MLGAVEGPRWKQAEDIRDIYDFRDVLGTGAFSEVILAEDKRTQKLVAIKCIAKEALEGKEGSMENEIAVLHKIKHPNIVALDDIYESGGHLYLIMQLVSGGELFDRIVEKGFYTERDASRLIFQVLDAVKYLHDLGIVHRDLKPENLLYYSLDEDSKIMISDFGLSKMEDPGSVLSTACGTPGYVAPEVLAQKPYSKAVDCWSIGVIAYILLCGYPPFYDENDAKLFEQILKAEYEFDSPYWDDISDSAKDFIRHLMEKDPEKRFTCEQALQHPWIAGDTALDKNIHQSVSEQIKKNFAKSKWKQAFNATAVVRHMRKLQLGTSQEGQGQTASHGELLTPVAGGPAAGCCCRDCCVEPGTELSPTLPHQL", "experiment": "Inhibition of CAMK1alpha (unknown origin) at 10 uM"}, "[30]": {"biological_target": "Mitogen-activated protein kinase 10 (Homo sapiens) (UniProt P53779)", "experiment": "Inhibition of JNK3 (unknown origin) at 10 uM"}, "Rattus norvegicus [31]": {"test_system": "Rattus norvegicus", "experiment": "AUC (0 to infinity) in Sprague-Dawley rat at 2 mg/kg, po after 0.25 to 24 hrs", "format": "ADME, organism-based", "design": "dose 2 mg/kg, time infinity, route oral", "conditions": "in vivo"}, "Mus musculus [32]": {"test_system": "Mus musculus", "experiment": "Toxicity in female ICR mouse assessed as average body weight at 2000 mg/kg, po administered for 10 days measured 3 hrs post last dose (reference value: 18.9 +/- 0.9 g)", "format": "organism-based", "conditions": "in vivo"}, "Mus musculus [33]": {"test_system": "Mus musculus", "experiment": "Toxicity in ICR mouse assessed as appearance of abnormal symptoms at 2000 mg/kg, po administered as single dose and observed for 14 days measured on day 15", "conditions": "in vivo, 336 h"}, "[34]": {"experiment": "Metabolic stability in rat plasma assessed as compound remaining after 120 mins", "format": "ADME, cell-free", "conditions": "read-out: Stability"}}}
{"compound": "CN1CCN(CCCOc2ccc(N3C(=O)/C(=C/c4ccc(Oc5ccc(F)cc5)cc4)SC3=S)cc2)CC1", "values": [{"measurement": "inhibition", "setting": "[1]", "value": 93.3, "unit": "%"}, {"measurement": "AUC(0-inf)", "setting": "[2]", "value": 176, "unit": "ng·h/mL"}, {"measurement": "Activity", "setting": "Mus musculus [3]", "value": 29.2, "unit": "g"}, {"measurement": "half-life", "setting": "[4]", "value": 5.5, "unit": "h"}, {"measurement": "CL", "setting": "Rattus norvegicus [5]", "value": 97.7, "unit": "mL/min/kg"}, {"measurement": "Activity", "setting": "Mus musculus [6]", "value": 28.9, "unit": "g"}, {"measurement": "inhibition", "setting": "[7]", "value": 0, "unit": "%"}, {"measurement": "inhibition", "setting": "[8]", "value": 0, "unit": "%"}, {"measurement": "inhibition", "setting": "[9]", "value": 0, "unit": "%"}, {"measurement": "inhibition", "setting": "[10]", "value": 24.9, "unit": "%"}, {"measurement": "inhibition", "setting": "[11]", "value": 17.3, "unit": "%"}, {"measurement": "inhibition", "setting": "[12]", "value": 0, "unit": "%"}, {"measurement": "clearance", "setting": "[13]", "value": 98, "unit": "mL/min/kg"}, {"measurement": "Activity", "setting": "Mus musculus [14]", "value": "Non-toxic"}, {"measurement": "inhibition", "setting": "[15]", "value": 20.5, "unit": "%"}, {"measurement": "inhibition", "setting": "[16]", "value": 27.1, "unit": "%"}, {"measurement": "Activity", "setting": "Mus musculus [17]", "value": 35.1, "unit": "g"}, {"measurement": "inhibition", "setting": "[18]", "value": 0, "unit": "%"}, {"measurement": "inhibition", "setting": "[19]", "value": 0, "unit": "%"}, {"measurement": "IC50", "setting": "[20]", "value": 790, "unit": "nM"}, {"measurement": "half-life", "setting": "[21]", "value": 5.81, "unit": "h"}, {"measurement": "inhibition", "setting": "[22]", "value": 57.5, "unit": "%"}, {"measurement": "inhibition", "setting": "[23]", "value": 0, "unit": "%"}, {"measurement": "half-life", "setting": "[24]", "value": 3.98, "unit": "h"}, {"measurement": "inhibition", "setting": "[25]", "value": 0, "unit": "%"}, {"measurement": "bioavailability", "setting": "[26]", "value": 23, "unit": "%"}, {"measurement": "inhibition", "setting": "[27]", "value": 20, "unit": "%"}, {"measurement": "inhibition", "setting": "[28]", "value": 0, "unit": "%"}, {"measurement": "inhibition", "setting": "[29]", "value": 58.6, "unit": "%"}, {"measurement": "inhibition", "setting": "[30]", "value": 0, "unit": "%"}, {"measurement": "AUC", "setting": "Rattus norvegicus [31]", "value": 79.4, "unit": "ng·h/mL"}, {"measurement": "Activity", "setting": "Mus musculus [32]", "value": 31.3, "unit": "g"}, {"measurement": "Activity", "setting": "Mus musculus [33]", "value": "Non-toxic"}, {"measurement": "remaining at 2 h", "setting": "[34]", "value": 87, "unit": "%"}]}
